The assay deals with T1, Cdc7 (BEV coexpressed huCDC7/DBF4) (Homo sapiens, UniProt O00311).
T1 construct: made in house; host or cells: BEV (baculovirus expression vector) co-expression; insect cells are implied but no cell line is named
As to the kind of experiment: Cdc7 enzyme inhibition assay ([33P]ATP, biotinylated peptide substrate, FlashPlate). The conditions noted are these: Table 3; enzyme inhibition data (Ki). The format is biochemical. As to the method:
Cdc7 (BEV coexpressed huCDC7/DBF4) is prepared internally. Cdc7 assays are conducted as follows with final concentrations as listed. […] Reactions are quenched after 1 hr by the addition of 90 μL stop buffer (50 mM EDTA, 2M NaCl). […] (Ki) for exemplary compounds.

Usually Ki stands for a measure of affinity in units of concentration, obtained from inhibition or displacement. A lower Ki goes with higher affinity.

Molecules are shown by their SMILES. Bounds are passed on as bounds.

T1 sequence (O00311 whole entry): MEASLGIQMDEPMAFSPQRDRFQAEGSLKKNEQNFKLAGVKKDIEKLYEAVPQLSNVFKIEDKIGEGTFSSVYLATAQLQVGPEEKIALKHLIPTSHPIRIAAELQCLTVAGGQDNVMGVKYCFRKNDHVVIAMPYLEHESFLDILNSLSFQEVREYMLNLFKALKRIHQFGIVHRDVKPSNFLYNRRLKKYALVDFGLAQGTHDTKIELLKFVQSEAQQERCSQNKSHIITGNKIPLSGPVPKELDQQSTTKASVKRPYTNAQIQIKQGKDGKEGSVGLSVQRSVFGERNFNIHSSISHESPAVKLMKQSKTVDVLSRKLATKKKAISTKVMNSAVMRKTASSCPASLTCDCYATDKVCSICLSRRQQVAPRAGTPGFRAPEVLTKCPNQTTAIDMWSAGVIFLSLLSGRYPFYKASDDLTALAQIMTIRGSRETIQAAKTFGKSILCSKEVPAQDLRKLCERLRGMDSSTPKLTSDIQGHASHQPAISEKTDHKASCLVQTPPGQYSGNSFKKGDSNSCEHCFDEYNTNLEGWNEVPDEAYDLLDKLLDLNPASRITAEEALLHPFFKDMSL
T1 sequence (Q9UBU7 whole entry partner): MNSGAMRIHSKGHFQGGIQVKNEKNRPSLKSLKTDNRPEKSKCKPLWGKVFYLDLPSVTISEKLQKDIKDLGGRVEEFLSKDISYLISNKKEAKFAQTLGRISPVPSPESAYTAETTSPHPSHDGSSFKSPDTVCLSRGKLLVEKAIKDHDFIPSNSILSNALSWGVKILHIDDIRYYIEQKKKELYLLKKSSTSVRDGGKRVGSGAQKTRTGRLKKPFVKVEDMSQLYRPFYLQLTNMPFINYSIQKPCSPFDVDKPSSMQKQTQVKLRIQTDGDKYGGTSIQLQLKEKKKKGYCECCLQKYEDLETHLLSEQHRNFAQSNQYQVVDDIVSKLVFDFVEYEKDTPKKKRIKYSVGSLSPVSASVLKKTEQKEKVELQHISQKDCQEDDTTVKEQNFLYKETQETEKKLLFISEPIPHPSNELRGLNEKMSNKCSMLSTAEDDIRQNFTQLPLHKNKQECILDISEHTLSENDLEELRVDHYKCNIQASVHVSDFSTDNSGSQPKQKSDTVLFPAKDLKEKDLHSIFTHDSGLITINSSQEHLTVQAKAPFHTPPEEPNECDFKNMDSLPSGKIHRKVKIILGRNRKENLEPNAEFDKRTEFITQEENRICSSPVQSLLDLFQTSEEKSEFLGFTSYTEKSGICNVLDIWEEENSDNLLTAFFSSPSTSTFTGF

With `CN1CCCC(C(=O)NC2CCCC(Nc3cc(-c4c[nH]c5ncccc45)cc(Cl)n3)C2)C1` (stereo not shown) [Example 348, N-(3-{[6-chloro-4-(1H-pyrrolo[2,3-b]pyridin-3-yl)pyridin-2-yl]amino}cyclohexyl)-1-methylpiperidine-3-carboxamide], the Ki lay in the range of 10 to 100 nM. The result for `CN(C)C1(C(=O)NC2CCCC(Nc3cc(-c4c[nH]c5ncccc45)cc(Cl)n3)C2)CCC1` (stereo not shown) [Example 349, N-(3-{[6-chloro-4-(1H-pyrrolo[2,3-b]pyridin-3-yl)pyridin-2-yl]amino}cyclohexyl)-1-(dimethylamino)cyclobutanecarboxamide] reads 10 to 100 nM; that for `C[C@@H](C(=O)NC1CCCC(Nc2cc(-c3c[nH]c4ncccc34)cc(Cl)n2)C1)N(C)C` (stereo partly drawn) [Example 350, N-(3-{[6-chloro-4-(1H-pyrrolo[2,3-b]pyridin-3-yl)pyridin-2-yl]amino}cyclohexyl)-N~2~,N~2~-dimethyl-L-alaninamide], < 10 nM. Turning to `O=C(CNCCO)N[C@H]1CC[C@H](Nc2cc(-c3c[nH]c4ncccc34)cc(Cl)n2)CC1` [Example 352, N-(trans-4-{[6-chloro-4-(1H-pyrrolo[2,3-b]pyridin-3-yl)pyridin-2-yl]amino}cyclohexyl)-N~2~-(2-hydroxyethyl)glycinamide], the Ki is < 10 nM. The result for `O=C1c2ccccc2C(=O)N1CCS(=O)(=O)NC1CCCC(Nc2cc(-c3c[nH]c4ncccc34)cc(Cl)n2)C1` (stereo not shown) [Example 353, N-(3-{[6-chloro-4-(1H-pyrrolo[2,3-b]pyridin-3-yl)pyridin-2-yl]amino}cyclohexyl)-2-(1,3-dioxo-1,3-dihydro-2H-isoindol-2-yl)ethanesulfonamide] reads < 10 nM; that for `CC(C)(C)CNCC(=O)N[C@H]1CC[C@H](Nc2cc(-c3c[nH]c4ncccc34)cc(Cl)n2)CC1` [Example 355, N-(trans-4-{[6-chloro-4-(1H-pyrrolo[2,3-b]pyridin-3-yl)pyridin-2-yl]amino}cyclohexyl)-N~2~-(2,2-dimethylpropyl)glycinamide], < 10 nM; that for `CCN(CCO)CC(=O)N[C@H]1CC[C@H](Nc2cc(-c3c[nH]c4ncccc34)cc(Cl)n2)CC1` [Example 356, N-(trans-4-{[6-chloro-4-(1H-pyrrolo[2,3-b]pyridin-3-yl)pyridin-2-yl]amino}cyclohexyl)-N~2~-ethyl-N~2~-(2-hydroxyethyl)glycinamide], < 10 nM.

For `Clc1cc(-c2c[nH]c3ncccc23)cc(N[C@H]2CC[C@H](NC3CCNCC3)CC2)n1` [Example 357, trans-N-[6-chloro-4-(1H-pyrrolo[2,3-b]pyridin-3-yl)pyridin-2-yl]-N′-(piperidin-4-yl)cyclohexane-1,4-diamine], the Ki is < 10 nM. The result for `O=C1c2ccccc2C(=O)N1CCS(=O)(=O)N[C@H]1CC[C@H](Nc2cc(-c3c[nH]c4ncccc34)cc(Cl)n2)CC1` [Example 358, N-(trans-4-{[6-chloro-4-(1H-pyrrolo[2,3-b]pyridin-3-yl)pyridin-2-yl]amino}cyclohexyl)-2-(1,3-dioxo-1,3-dihydro-2H-isoindol-2-yl)ethanesulfonamide] reads < 10 nM; that for `Clc1cc(-c2c[nH]c3ncccc23)cc(NC2CCC(CC3CCC(NC4CCC4)CC3)CC2)n1` (stereo not shown) [Example 359, 6-chloro-N-(4-{[4-(cyclobutylamino)cyclohexyl]methyl}cyclohexyl)-4-(1H-pyrrolo[2,3-b]pyridin-3-yl)pyridin-2-amine], < 10 nM; that for `O=C(CN1CCCCC1)Nc1cc(-c2c[nH]c3ncccc23)cc(Cl)n1` [Example 360, N-[6-chloro-4-(1H-pyrrolo[2,3-b]pyridin-3-yl)pyridin-2-yl]-2-(piperidin-1-yl)acetamide], < 10 nM. The result for `Clc1cc(-c2c[nH]c3ncccc23)cc(N[C@H]2CC[C@H](NC3CCN(C4CCC4)CC3)CC2)n1` [Example 361, trans-N-[6-chloro-4-(1H-pyrrolo[2,3-b]pyridin-3-yl)pyridin-2-yl]-N′-(1-cyclobutylpiperidin-4-yl)cyclohexane-1,4-diamine] reads < 10 nM.

For `CC(C)(C)OC(=O)N1CCC(C2CCC(Nc3cc(-c4c[nH]c5ncccc45)cc(Cl)n3)CC2)CC1` (stereo not shown) [Example 362, tert-butyl 4-(4-{[6-chloro-4-(1H-pyrrolo[2,3-b]pyridin-3-yl)pyridin-2-yl]amino}cyclohexyl)piperidine-1-carboxylate], the Ki was in the range of 10 to 100 nM. The result for `CC(C)(C)OC(=O)N1CC(C(=O)N[C@H]2CC[C@H](Nc3cc(-c4c[nH]c5ncccc45)cc(Cl)n3)CC2)C1` [Example 364, tert-butyl 3-[(trans-4-{[6-chloro-4-(1H-pyrrolo[2,3-b]pyridin-3-yl)pyridin-2-yl]amino}cyclohexyl)carbamoyl]azetidine-1-carboxylate] reads < 10 nM; that for `O=C(C1CC1)N1CCC(C2CCC(Nc3cc(-c4c[nH]c5ncccc45)cc(Cl)n3)CC2)CC1` (stereo not shown) [Example 366, [4-(4-{[6-chloro-4-(1H-pyrrolo[2,3-b]pyridin-3-yl)pyridin-2-yl]amino}cyclohexyl)piperidin-1-yl](cyclopropyl)methanone], < 10 nM; that for `O=C(N[C@H]1CC[C@H](Nc2cc(-c3c[nH]c4ncccc34)cc(Cl)n2)CC1)C1CCN(CCO)CC1` [Example 367, N-(trans-4-{[6-chloro-4-(1H-pyrrolo[2,3-b]pyridin-3-yl)pyridin-2-yl]amino}cyclohexyl)-1-(2-hydroxyethyl)piperidine-4-carboxamide], < 10 nM. The result for `O=C(NC1CCC(CC2CCC(Nc3cc(-c4c[nH]c5ncccc45)cc(Cl)n3)CC2)CC1)C1CC1` (stereo not shown) [Example 368, N-{4-[(4-{[6-chloro-4-(1H-pyrrolo[2,3-b]pyridin-3-yl)pyridin-2-yl]amino}cyclohexyl)methyl]cyclohexyl} cyclopropanecarboxamide] reads < 10 nM. The same measure for `CC(=O)N1CCC(NC2CCC(Nc3cc(-c4c[nH]c5ncccc45)cc(Cl)n3)CC2)CC1` (stereo not shown) [Example 369, 1-{4-[(4-{[6-chloro-4-(1H-pyrrolo[2,3-b]pyridin-3-yl)pyridin-2-yl]amino}cyclohexyl)amino]piperidin-1-yl}ethanone]: < 10 nM; for `CS(=O)(=O)N1CCC(C2CCC(N(c3cc(-c4c[nH]c5ncccc45)cc(Cl)n3)S(C)(=O)=O)CC2)CC1` (stereo not shown) [Example 370, N-[6-chloro-4-(1H-pyrrolo[2,3-b]pyridin-3-yl)pyridin-2-yl]-N-{4-[1-(methylsulfonyl)piperidin-4-yl]cyclohexyl}methanesulfonamide]: 10 to 100 nM; for `CN1CCCC(C2CCC(Nc3cc(-c4c[nH]c5ncccc45)cc(Cl)n3)CC2)C1` (stereo not shown) [Example 371, 6-chloro-N-[4-(1-methylpiperidin-3-yl)cyclohexyl]-4-(1H-pyrrolo[2,3-b]pyridin-3-yl)pyridin-2-amine]: < 10 nM. Regarding `CN1CCCC(C2CCC(N(C)c3cc(-c4c[nH]c5ncccc45)cc(Cl)n3)CC2)C1` (stereo not shown) [Example 372, 6-chloro-N-methyl-N-[4-(1-methylpiperidin-3-yl)cyclohexyl]-4-(1H-pyrrolo[2,3-b]pyridin-3-yl)pyridin-2-amine], the Ki was < 10 nM. The result for `O=C(NCCS(=O)(=O)N[C@H]1CC[C@H](Nc2cc(-c3c[nH]c4ncccc34)cc(Cl)n2)CC1)C1CC1` [Example 373, N-{2-[(trans-4-{[6-chloro-4-(1H-pyrrolo[2,3-b]pyridin-3-yl)pyridin-2-yl]amino}cyclohexyl)sulfamoyl]ethyl} cyclopropanecarboxamide] reads < 10 nM. The same measure for `OCCCNc1cc(-c2c[nH]c3ncccc23)cc(Cl)n1` [Example 374, 3-{[6-chloro-4-(1H-pyrrolo[2,3-b]pyridin-3-yl)pyridin-2-yl]amino}propan-1-ol]: < 10 nM. The result for `Clc1cc(-c2c[nH]c3ncccc23)cc(NCCCN2CCOCC2)n1` [Example 375, 6-chloro-N-[3-(morpholin-4-yl)propyl]-4-(1H-pyrrolo[2,3-b]pyridin-3-yl)pyridin-2-amine] reads 10 to 100 nM; that for `Clc1cc(-c2c[nH]c3ncccc23)cc(NCCCn2ccnc2)n1` [Example 376, 6-chloro-N-[3-(1H-imidazol-1-yl)propyl]-4-(1H-pyrrolo[2,3-b]pyridin-3-yl)pyridin-2-amine], < 10 nM; that for `OCCCCCNc1cc(-c2c[nH]c3ncccc23)cc(Cl)n1` [Example 377, 5-{[6-chloro-4-(1H-pyrrolo[2,3-b]pyridin-3-yl)pyridin-2-yl]amino}pentan-1-ol], < 10 nM. Turning to `Clc1cc(-c2c[nH]c3ncccc23)cc(NCCc2cccnc2)n1` [Example 378, 6-chloro-N-[2-(pyridin-3-yl)ethyl]-4-(1H-pyrrolo[2,3-b]pyridin-3-yl)pyridin-2-amine], the Ki was < 10 nM.

Consider `NC1CCC(N2CCC(Nc3cc(-c4c[nH]c5ncccc45)cc(Cl)n3)CC2)CC1` (stereo not shown) [Example 379, N-[1-(4-aminocyclohexyl)piperidin-4-yl]-6-chloro-4-(1H-pyrrolo[2,3-b]pyridin-3-yl)pyridin-2-amine], for which the Ki was < 10 nM. The result for `CN1CCC(C2CCC(N(C)c3cc(-c4c[nH]c5ncccc45)cc(Cl)n3)CC2)C1` (stereo not shown) [Example 380, 6-chloro-N-methyl-N-[4-(1-methylpyrrolidin-3-yl)cyclohexyl]-4-(1H-pyrrolo[2,3-b]pyridin-3-yl)pyridin-2-amine] reads < 10 nM.

Consider `O=C(N[C@H]1CC[C@H](Nc2cc(-c3c[nH]c4ncccc34)cc(Cl)n2)CC1)C1CN(Cc2ccccc2)C1` [Example 381, 1-benzyl-N-(trans-4-{[6-chloro-4-(1H-pyrrolo[2,3-b]pyridin-3-yl)pyridin-2-yl]amino}cyclohexyl)azetidine-3-carboxamide], for which the Ki was < 10 nM.

As for `COc1cc(Cl)ccc1C(=O)N[C@H]1CC[C@H](Nc2cc(-c3c[nH]c4ncccc34)cc(Cl)n2)CC1` [Example 382, 4-chloro-N-(trans-4-{[6-chloro-4-(1H-pyrrolo[2,3-b]pyridin-3-yl)pyridin-2-yl]amino}cyclohexyl)-2-methoxybenzamide], the Ki is < 10 nM.

The record behind these values is patent US8435980B2 (AbbVie Inc., priority 2009, dated 2013).
